What was measured:
Type in all cases: cell-based
[1] = test system: E. coli DH5α; assay: Antibacterial activity: MIC and growth curve against E. coli DH5α in 96-well plate; conditions: minimal inhibitory concentration against E. coli DH5α; 96-well plate, 5×10^5 CFU/mL, 37° C., judged after 8 h
How it was run: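 MIC taken as lowest protein level with no bacterial growth, tracked by A600 every 30 min during 37 °C, 175 rpm culture. Two-fold protein series 50-12.5 μg/mL final, triplicate wells, against 5×10^5 CFU/mL of LB-washed mid-log cells.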

[2] = test system: E. coli BL21; assay: MIC against Gram-negative bacteria: E. coli BL21
How it was run: (§1)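 Bacteria grown in LB at 37° C with shaking to McFarland 0.5, pelleted and resuspended in fresh LB, then seeded at 5×10^5 CFU/mL per well. Purified recombinant human EGF domain proteins were two-fold serially diluted in triplicate and plates shaken at 37° C, 175 rpm. MIC is the lowest protein concentration with no bacterial growth.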

[3] = test system: Pseudomonas aeruginosa; assay: MIC against Gram-negative bacteria: Pseudomonas aeruginosa
How it was run: as §1

[4] = test system: Klebsiella pneumonia; assay: MIC against Gram-negative bacteria: Klebsiella pneumonia
How it was run: as §1

[5] = test system: Enterobacter cloacae; assay: MIC against Gram-negative bacteria: Enterobacter cloacae
How it was run: as §1

[6] = test system: Aeromonas hydrophila; assay: MIC against Gram-negative bacteria: Aeromonas hydrophila
How it was run: as §1

[7] = test system: Citrobacter diversus; assay: MIC against Gram-negative bacteria: Citrobacter diversus
How it was run: as §1

[8] = test system: Moraxella catarrhalis; assay: MIC against Gram-negative bacteria: Moraxella catarrhalis
How it was run: as §1

[9] = test system: Proteus mirabilis; assay: MIC against Gram-negative bacteria: Proteus mirabilis
How it was run: as §1

[10] = test system: Proteus vulgaris; assay: MIC against Gram-negative bacteria: Proteus vulgaris
How it was run: as §1

[11] = test system: Serratia marcescens; assay: MIC against Gram-negative bacteria: Serratia marcescens
How it was run: as §1

[12] = E. coli BL21, 96-well plate, 5×10^5 CFU/mL, 37° C., 10 h
[13] = Pseudomonas aeruginosa, 96-well plate, 5×10^5 CFU/mL, 37° C., 10 h
[14] = Klebsiella pneumonia, 96-well plate, 5×10^5 CFU/mL, 37° C., 10 h
[15] = Enterobacter cloacae, 96-well plate, 5×10^5 CFU/mL, 37° C., 10 h
[16] = Aeromonas hydrophila, 96-well plate, 5×10^5 CFU/mL, 37° C., 10 h
[17] = Citrobacter diversus, 96-well plate, 5×10^5 CFU/mL, 37° C., 10 h
[18] = Moraxella catarrhalis, 96-well plate, 5×10^5 CFU/mL, 37° C., 10 h
[19] = Proteus mirabilis, 96-well plate, 5×10^5 CFU/mL, 37° C., 10 h
[20] = Proteus vulgaris, 96-well plate, 5×10^5 CFU/mL, 37° C., 10 h
[21] = Serratia marcescens, 96-well plate, 5×10^5 CFU/mL, 37° C., 10 h
[22] = 96-well plate, 5×10^5 CFU/mL, 37° C., 10 h
[23] = 10 h cultivation at 37° C., 5×10^5 CFU/mL, two-fold serial dilution

PRT1282 (SLDSCSSGPCENGGTCHAQEGEDAPFTCSCPTGFEGPTCG; listed as Homo sapiens)
MIC [1]: 12.5 µg/mL | MIC against E. coli BL21 [2, 12]: 50 µg/mL | MIC against P. aeruginosa [3, 13]: 12.5 µg/mL | MIC against K. pneumonia [4, 14]: 50 µg/mL | MIC against E. cloacae [5, 15]: 25 µg/mL | MIC against A. hydrophila [6, 16]: 12.5 µg/mL | MIC against C. diversus [7, 17]: 50 µg/mL | MIC against M. catarrhalis [8, 18]: 25 µg/mL | MIC against P. mirabilis [9, 19]: 12.5 µg/mL | MIC against P. vulgaris [10, 20]: 25 µg/mL | MIC against S. marcescens [11, 21]: 50 µg/mL

PRT1018 (DVDECETQGPPHCRNGGTCQNSAGSFHCVCVSGWGGTSCE; listed as Homo sapiens)
MIC [1]: 25 µg/mL | MIC ([2]; E. coli BL21, 10 h cultivation at 37° C.): 12.5 µg/mL | MIC ([3]; P. aeruginosa, 10 h cultivation at 37° C.): 50 µg/mL | MIC ([4]; K. pneumonia, 10 h cultivation at 37° C.): 12.5 µg/mL | MIC ([5]; E. cloacae, 10 h cultivation at 37° C.): 25 µg/mL | MIC ([6]; A. hydrophila, 10 h cultivation at 37° C.): 50 µg/mL | MIC ([7]; C. diversus, 10 h cultivation at 37° C.): 12.5 µg/mL | MIC ([8]; M. catarrhalis, 10 h cultivation at 37° C.): 50 µg/mL | MIC ([9]; P. mirabilis, 10 h cultivation at 37° C.): 12.5 µg/mL | MIC ([10]; P. vulgaris, 10 h cultivation at 37° C.): 50 µg/mL | MIC ([11]; S. marcescens, 10 h cultivation at 37° C.): 25 µg/mL

PRT517 (CQCFGHAESCDDVTGECLNCKDHTGGPYCDKCLPGFYGEPTKGTSEDCQP; listed as Homo sapiens)
MIC [1]: 25 µg/mL | MIC against E. coli BL21 [2, 22]: 12.5 µg/mL | MIC against P. aeruginosa [3, 22]: 25 µg/mL | MIC against K. pneumonia [4, 22]: 50 µg/mL | MIC against E. cloacae [5, 22]: 25 µg/mL | MIC against A. hydrophila [6, 22]: 12.5 µg/mL | MIC against C. diversus [7, 22]: 25 µg/mL | MIC against M. catarrhalis [8, 22]: 50 µg/mL | MIC against P. mirabilis [9, 22]: 25 µg/mL | MIC against P. vulgaris [10, 22]: 12.5 µg/mL | MIC against S. marcescens [11, 22]: 25 µg/mL

PRT1409 (RACHPRCAEHGTCKDGKCECSQGWNGEHCT; listed as Homo sapiens)
MIC [1]: 12.5 µg/mL | MIC against E. coli BL21 ([2]; E. coli BL21, 5×10^5 CFU/mL, 10 h cultivation at 37° C.): 12.5 µg/mL | MIC against P. aeruginosa ([3]; Pseudomonas aeruginosa, 5×10^5 CFU/mL, 10 h cultivation at 37° C.): 12.5 µg/mL | MIC against K. pneumonia ([4]; Klebsiella pneumonia, 5×10^5 CFU/mL, 10 h cultivation at 37° C.): 12.5 µg/mL | MIC against E. cloacae ([5]; Enterobacter cloacae, 5×10^5 CFU/mL, 10 h cultivation at 37° C.): 12.5 µg/mL | MIC against A. hydrophila ([6]; Aeromonas hydrophila, 5×10^5 CFU/mL, 10 h cultivation at 37° C.): 12.5 µg/mL | MIC against C. diversus ([7]; Citrobacter diversus, 5×10^5 CFU/mL, 10 h cultivation at 37° C.): 12.5 µg/mL | MIC against M. catarrhalis ([8]; Moraxella catarrhalis, 5×10^5 CFU/mL, 10 h cultivation at 37° C.): 12.5 µg/mL | MIC against P. mirabilis ([9]; Proteus mirabilis, 5×10^5 CFU/mL, 10 h cultivation at 37° C.): 50 µg/mL | MIC against P. vulgaris ([10]; Proteus vulgaris, 5×10^5 CFU/mL, 10 h cultivation at 37° C.): 12.5 µg/mL | MIC against S. marcescens ([11]; Serratia marcescens, 5×10^5 CFU/mL, 10 h cultivation at 37° C.): 50 µg/mL

PRT1167 (NINDCESNPCRNGGTCIDGVNSYKCICSDGWEGAYCE; listed as Homo sapiens)
MIC [1]: 50 µg/mL | MIC E. coli BL21 [2, 23]: 25 µg/mL | MIC P. aeruginosa [3, 23]: 12.5 µg/mL | MIC K. pneumonia [4, 23]: 25 µg/mL | MIC E. cloacae [5, 23]: 50 µg/mL | MIC A. hydrophila [6, 23]: 25 µg/mL | MIC C. diversus [7, 23]: 12.5 µg/mL | MIC M. catarrhalis [8, 23]: 25 µg/mL | MIC P. mirabilis [9, 23]: 50 µg/mL | MIC P. vulgaris [10, 23]: 25 µg/mL | MIC S. marcescens [11, 23]: 12.5 µg/mL

PRT100 (DVNECTSGQNPCHSSTHCLNNVGSYQCRCRPGWQPIPGSPNGPNNTVCE; listed as Homo sapiens)
MIC [1]: 12.5 µg/mL | MIC (μg/mL) E. coli BL21 [2, 12]: 12.5 µg/mL | MIC (μg/mL) P. aeruginosa [3, 13]: 12.5 µg/mL | MIC (μg/mL) K. pneumonia [4, 14]: 12.5 µg/mL | MIC (μg/mL) E. cloacae [5, 15]: 12.5 µg/mL | MIC (μg/mL) A. hydrophila [6, 16]: 12.5 µg/mL | MIC (μg/mL) C. diversus [7, 17]: 12.5 µg/mL | MIC (μg/mL) M. catarrhalis [8, 18]: 12.5 µg/mL | MIC (μg/mL) P. mirabilis [9, 19]: 12.5 µg/mL | MIC (μg/mL) P. vulgaris [10, 20]: 25 µg/mL | MIC (μg/mL) S. marcescens [11, 21]: 12.5 µg/mL

Source: patent US9833497B2, “Human originated EGF domain proteins and use of the same” (CHENGDU SOURCEBIO LIMITED-LIABILITY COMPANY, priority 2013, dated 2017)
